From US9181214B2 (RHIZEN PHARMACEUTICALS SA, priority 2011, dated 2015)

Biological target: T1, human GPR119 (Homo sapiens, UniProt Q8TDV5)
T1 construct: expressed in transfected cells; host or cells: HEK293 (transient transfection, Lipofectamine 2000)
T1 sequence (Q8TDV5 1-335): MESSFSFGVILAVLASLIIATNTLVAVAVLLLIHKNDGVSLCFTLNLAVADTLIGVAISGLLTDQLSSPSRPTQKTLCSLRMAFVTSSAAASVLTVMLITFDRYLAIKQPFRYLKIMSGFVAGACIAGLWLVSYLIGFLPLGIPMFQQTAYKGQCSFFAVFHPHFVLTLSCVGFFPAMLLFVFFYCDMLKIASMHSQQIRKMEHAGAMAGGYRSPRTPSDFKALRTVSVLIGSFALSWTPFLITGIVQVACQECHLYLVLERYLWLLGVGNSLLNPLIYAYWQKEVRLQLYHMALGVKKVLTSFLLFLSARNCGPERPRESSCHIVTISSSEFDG
Assay: In vitro cyclic AMP assay (Cisbio HTRF) in HEK293 cells transfected with human GPR119
Assay type: cell-based
Conditions: cAMP; for activation at 10 µM: 1 h, % Induction @ 10 μM; for EC50: Emax varies between 65 to 80%
Description: A. In Vitro Cyclic AMP Assay:
cAMP measurements were done using a Cisbio dynamic 2 HTRF kit (Cisbio, Bedford, Mass.) according to the manufacturer's protocol. Briefly, HEK293 cells (0.2×10^6/well) were plated in a 24 well plate and incubated overnight at 37° C. Cells were transfected with either empty vector DNA or human GPR119 expression plasmid DNA using Lipofectamine 2000 (Invitrogen). After 24 h, transfected cells were harvested, counted and plated at 1000 cells/5 ul in a black 384 welled small volume plate. Cells were treated with desired concentrations of compounds and incubated for 60 min at room temperature. Lysis buffer containing cAMP-d2 and cryptate conjugate were added and incubated for 1 h. HRTF ratio was measured on a microplate reader (BMG Labtech., Germany) at an excitation wavelength of 337 nm and emission wavelengths of 665 and 620 nm with an integration time of 400 μsec. Data were analyzed using Graphpad Prism (Graphpad software; San Diego Calif.) for EC50 determination.
The results are as given in Table I as % Induction@ 10 μM, Table II as % Induction@ 10 μM and EC 50 in nM

CCOC(=O)N1CCC(c2ccc3oc(-c4ccc(S(C)(=O)=O)cc4F)nc3c2)CC1 [EXAMPLE-69, Ethyl 4-{2-[2-fluoro-4-(methylsulfonyl)phenyl]benzo[d]oxazol-5-yl}piperidine-1-carboxylate]
activation at 10 µM (Table II): 71.8%
EC50 (Table II): 25 to 50 nM

CC(C)(C)OC(=O)N1CCC(c2nc3cc(-c4ccc(C(F)(F)F)cc4)ccc3o2)CC1 [EXAMPLE-13, Tert-butyl 4-{5-[4-(trifluoromethyl)phenyl]benzo[d]oxazol-2-yl}piperidine-1-carboxylate]
activation at 10 µM (Table I): 68.2%
EC50 (Table I): 100 to 500 nM

CCc1cnc(N2CCC(c3nc4cc(-c5ccc(-n6cnnn6)cc5F)ccc4o3)CC2)nc1 [EXAMPLE-16, 2-[1-(5-ethylpyrimidin-2-yl)piperidin-4-yl]-5-[2-fluoro-4-(1H-tetrazol-1-yl)phenyl]benzo[d]oxazole]
activation at 10 µM (Table I): 43.7%

CC(C)(C)OC(=O)N1CC=C(c2ccc3nc(-c4ccc(S(C)(=O)=O)cc4F)sc3c2)CC1 [EXAMPLE-65, Tert-butyl 4-{2-[2-fluoro-4-(methylsulfonyl)phenyl]benzo[d]thiazol-6-yl}-5,6-dihydropyridine-1(2H)-carboxylate]
activation at 10 µM (Table II): 32.1%

Cn1c(C2CCN(C(=O)OC(C)(C)C)CC2)nc2cc(-c3ccc(S(C)(=O)=O)cc3F)ccc21 [EXAMPLE-5, Tert-butyl 4-{5-[2-fluoro-4-(methylsulfonyl)phenyl]-1-methyl-1H-benzo[d]imidazol-2-yl}piperidine-1-carboxylate]
activation at 10 µM (Table I): 41%

CC(C)(C)OC(=O)N1CCC(c2cc(F)c3oc(-c4ccc(S(C)(=O)=O)cc4F)nc3c2)CC1 [EXAMPLE-63, Tert-butyl 4-{7-fluoro-2-[2-fluoro-4-(methylsulfonyl)phenyl]benzo[d]oxazol-5-yl}piperidine-1-carboxylate]
activation at 10 µM (Table II): 56.6%

CCOC(=O)N1CCC(c2ccc3nc(-c4ccc(S(C)(=O)=O)cc4F)oc3c2)CC1 [EXAMPLE-72, Ethyl 4-{2-[2-fluoro-4-(methylsulfonyl)phenyl]benzo[d]oxazol-6-yl}piperidine-1-carboxylate]
activation at 10 µM (Table II): 81.6%
EC50 (Table II): ≤ 25 nM

CC(C)OC(=O)N1CCC(c2nc3cc(-c4ccc(C(F)(F)F)cc4)ccc3o2)CC1 [EXAMPLE-27, Isopropyl 4-{5-[4-(trifluoromethyl)phenyl]benzo[d]oxazol-2-yl}piperidine-1-carboxylate]
activation at 10 µM (Table I): 46.5%

CC(C)(C)OC(=O)N1CCC(c2ccc3oc(-c4ccc(S(C)(=O)=O)cc4F)nc3c2)CC1 [EXAMPLE-60, Tert-butyl 4-{2-[2-fluoro-4-(methylsulfonyl)phenyl]benzo[d]oxazol-5-yl}piperidine-1-carboxylate]
activation at 10 µM (Table II): 72.8%
EC50 (Table II): 25 to 50 nM

CC(C)(C)OC(=O)N1CC=C(c2ccc3[nH]c(-c4ccc(S(C)(=O)=O)cc4F)nc3c2)CC1 [EXAMPLE-56, Tert-butyl 4-{2-[2-fluoro-4-(methylsulfonyl)phenyl]-1H-benzo[d]imidazol-5-yl}-5,6-dihydropyridine-1(2H)-carboxylate]
activation at 10 µM (Table II): 38.5%

CC(C)OC(=O)N1CCC(c2nc3cc(-c4ccc(C(N)=O)c(F)c4)ccc3o2)CC1 [EXAMPLE-31, Isopropyl 4-[5-(4-carbamoyl-3-fluorohenyl)benzo[d]oxazol-2-yl]piperidine-1-carboxylate]
activation at 10 µM (Table I): 80.4%
EC50 (Table I): ≤ 25 nM

CC(C)COC(=O)N1CCC(c2ccc3oc(-c4ccc(S(C)(=O)=O)cc4F)nc3c2)CC1 [EXAMPLE-75, Isobutyl 4-{2-[2-fluoro-4-(methylsulfonyl)phenyl]benzo[d]oxazol-5-yl}piperidine-1-carboxylate]
activation at 10 µM (Table II): 57.5%

CS(=O)(=O)c1ccc(-c2nc3cc(C4=CCN(S(=O)(=O)CCCO)CC4)ccc3o2)c(F)c1 [EXAMPLE-79, 3-{4-[2-(2-fluoro-4-(methylsulfonyl)phenyl)benzo[d]oxazol-5-yl]-5,6-dihydropyridin-1(2H)-ylsulfonyl}propan-1-ol]
activation at 10 µM (Table II): 46.2%

CC(C)OC(=O)N1CCC(c2nc3cc(-c4ccc(-n5cnnn5)c(F)c4)ccc3o2)CC1 [EXAMPLE-18, Isopropyl 4-{5-[3-fluoro-4-(1H-tetrazol-1-yl)phenyl]benzo[d]oxazol-2-yl}piperidine-1-carboxylate]
activation at 10 µM (Table I): 36.4%

Fc1cc(-n2cnnn2)ccc1-c1ccc2oc(C3CCNCC3)nc2c1 [EXAMPLE-26, 5-[2-fluoro-4-(1H-tetrazol-1-yl)phenyl]-2-(piperidin-4-yl)benzo[d]oxazole]
activation at 10 µM (Table I): 74%

CC(C)(C)OC(=O)N1CCC(c2nc3cc(-c4ccc(C(N)=O)c(Cl)c4)ccc3o2)CC1 [EXAMPLE-20, Tert-butyl 4-[5-(4-carbamoyl-3-chlorophenyl)benzo[d]oxazol-2-yl]piperidine-1-carboxylate]
activation at 10 µM (Table I): 73.9%
EC50 (Table I): 25 to 50 nM

CC(C)(C)OC(=O)N1CCC(c2nc3cc(-c4ccc(C#N)c(F)c4)ccc3o2)CC1 [EXAMPLE-17, Tert-butyl 4-[5-(4-cyano-3-fluorophenyl)benzo[d]oxazol-2-yl]piperidine-1-carboxylate]
activation at 10 µM (Table I): 41.5%

CC(C)(C)OC(=O)N1CC=C(c2cc3cc(-c4ccc(C(N)=O)c(F)c4)ccc3o2)CC1 [EXAMPLE-52, Tert-butyl 4-[5-(4-carbamoyl-3-fluorophenyl)benzofuran-2-yl]-5,6-dihydropyridine-1(2H)-carboxylate]
activation at 10 µM (Table I): 68.4%
EC50 (Table I): 100 to 500 nM

CC(C)(C)OC(=O)N1CCC(c2nc3cc(-c4ccc(-n5cnnn5)cc4)ccc3o2)CC1 [EXAMPLE-11, Tert-butyl 4-{5-[4-(1H-tetrazol-1-yl)phenyl]benzo[d]oxazol-2-yl}piperidine-1-carboxylate]
activation at 10 µM (Table I): 70.1%

CC(C)(C)OC(=O)N1CCC(c2ccc3[nH]c(-c4ccc(S(C)(=O)=O)cc4F)nc3c2)CC1 [EXAMPLE-57, Tert-butyl 4-{2-[2-fluoro-4-(methylsulfonyl)phenyl]-1H-benzo[d]imidazol-5-yl}piperidine-1-carboxylate]
activation at 10 µM (Table II): 47%

CC(C)OC(=O)N1CCC(c2nc3cc(-c4ccc(S(C)(=O)=O)cc4F)ccc3o2)CC1 [EXAMPLE-7, Isopropyl 4-{5-[2-fluoro-4-(methylsulfonyl)phenyl]benzo[d]oxazol-2-yl}piperidine-1-carboxylate]
activation at 10 µM (Table I): 62.6%
EC50 (Table I): 50 to 100 nM

CC(C)OC(=O)N1CCC(c2nc3cc(-c4ccc(C(N)=O)c(Cl)c4)ccc3o2)CC1 [EXAMPLE-30, Isopropyl 4-[5-(4-carbamoyl-3-chlorophenyl)benzo[d]oxazol-2-yl]piperidine-1-carboxylate]
activation at 10 µM (Table I): 62.2%
EC50 (Table I): 500 to 1000 nM

CCC(CC)OC(=O)N1CCC(c2nc3cc(-c4ccc(-n5cnnn5)cc4F)ccc3o2)CC1 [EXAMPLE-25, Pentan-3-yl 4-{5-[2-fluoro-4-(1H-tetrazol-1-yl)phenyl]benzo[d]oxazol-2-yl}piperidine-1-carboxylate]
activation at 10 µM (Table I): 63.4%

CC(C)(C)OC(=O)N1CCC(c2nc3cc(-c4ccc(S(C)(=O)=O)c(F)c4)ccc3o2)CC1 [EXAMPLE-10, Tert-butyl 4-{5-[3-fluoro-4-(methylsulfonyl)phenyl]benzo[d]oxazol-2-yl}piperidine-1-carboxylate]
activation at 10 µM (Table I): 59.2%
EC50 (Table I): 500 to 1000 nM

CC(C)OC(=O)N1CCC(c2ccc3nc(-c4ccc(S(C)(=O)=O)cc4F)oc3c2)CC1 [EXAMPLE-71, Isopropyl 4-{2-[2-fluoro-4-(methylsulfonyl)phenyl]benzo[d]oxazol-6-yl}piperidine-1-carboxylate]
activation at 10 µM (Table II): 76.6%
EC50 (Table II): ≤ 25 nM

CC(C)(C)OC(=O)N1CCC(c2nc3cc(-c4ccc(S(C)(=O)=O)cc4F)ccc3o2)CC1 [EXAMPLE-4, tert-butyl 4-{5-[2-fluoro-4-(methylsulfonyl)phenyl]benzo[d]oxazol-2-yl}piperidine-1-carboxylate]
activation at 10 µM (Table I): 74.2%
EC50 (Table I): 50 to 100 nM

CC(C)(C)OC(=O)N1CCC(c2ccc3nc(-c4ccc(S(C)(=O)=O)cc4F)oc3c2)CC1 [EXAMPLE-67, Tert-butyl 4-{2-[2-fluoro-4-(methylsulfonyl)phenyl]benzo[d]oxazol-6-yl}piperidine-1-carboxylate]
activation at 10 µM (Table II): 73%
EC50 (Table II): 25 to 50 nM

CC(C)Oc1ccc(-c2ccc3oc(C4CCN(C(=O)OC(C)(C)C)CC4)nc3c2)cc1F [EXAMPLE-22, Tert-butyl 4-[5-(3-fluoro-4-isopropoxyphenyl)benzo[d]oxazol-2-yl]piperidine-1-carboxylate]
activation at 10 µM (Table I): 64.5%

CCC(C)OC(=O)N1CCC(c2nc3cc(-c4ccc(-n5cnnn5)cc4F)ccc3o2)CC1 (stereo not shown) [EXAMPLE-24, Sec-butyl 4-{5-[2-fluoro-4-(1H-tetrazol-1-yl)phenyl]benzo[d]oxazol-2-yl}piperidine-1-carboxylate]
activation at 10 µM (Table I): 67.5%
EC50 (Table I): ≤ 25 nM
